Target: T1, monoglyceride lipase (MGLL) (Homo sapiens, UniProt Q99685)
T1 construct: enzyme source only in Supplementary section D
T1 sequence (Q99685 1-303): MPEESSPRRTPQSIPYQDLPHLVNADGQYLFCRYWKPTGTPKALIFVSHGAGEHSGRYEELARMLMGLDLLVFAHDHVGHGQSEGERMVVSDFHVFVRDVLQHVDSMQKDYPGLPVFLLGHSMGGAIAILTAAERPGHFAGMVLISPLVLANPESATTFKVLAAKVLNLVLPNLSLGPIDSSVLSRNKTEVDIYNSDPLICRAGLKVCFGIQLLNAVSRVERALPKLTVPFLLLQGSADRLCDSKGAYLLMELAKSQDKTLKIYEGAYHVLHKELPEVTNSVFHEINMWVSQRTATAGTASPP
Assay: natural substrate assay, residual MGLL activity
Conditions: enzyme preparation and conditions only in Supplementary section D

IC50 [µM]	SMILES
1	O=C(OC(C(F)(F)F)C(F)(F)F)N1CCN(C2CCCCC2)CC1 [compound 1, Compound 1]
~100	O=C(N1CCCC(c2ccc(F)cc2)C1)n1nnc2ccccc21 (stereo not drawn) [compound 2]
~100	O=C(c1nccs1)N1CCN(C(c2ccccc2)c2ccccc2)CC1 [compound 3]
